Consider 26 compounds from patent publication US8455475B2 (Gruenenthal GmbH, priority 2009, dated 2013).

As a reminder, the inhibition is the relative decrease from the control value, in per cent.

SMILES strings stand for the structures.

This assay deals with T1, rat B1R (bradykinin receptor 1) (Rattus norvegicus, UniProt P97583).
T1 construct: expressed in transfected cells; host or cells: CHO K1 cells
T1 sequence (P97583 1-337): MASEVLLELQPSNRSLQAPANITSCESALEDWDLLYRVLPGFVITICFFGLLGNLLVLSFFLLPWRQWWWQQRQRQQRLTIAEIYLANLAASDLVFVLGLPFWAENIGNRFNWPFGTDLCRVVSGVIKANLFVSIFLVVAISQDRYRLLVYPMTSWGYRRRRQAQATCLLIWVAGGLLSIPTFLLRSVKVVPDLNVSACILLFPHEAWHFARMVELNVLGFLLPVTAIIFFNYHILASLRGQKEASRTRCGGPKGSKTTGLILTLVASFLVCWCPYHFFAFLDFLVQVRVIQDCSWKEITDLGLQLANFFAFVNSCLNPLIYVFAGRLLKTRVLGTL
Kind of assay: FLIPR Ca2+ assay (Fluo-4) on CHO K1 cells stably transfected with the B1R gene of the rat (rB1R cells): % inhibition at 10 μM / IC50, agonist Des-Arg9-bradykinin. The format is cell-based. The settings on record: CHO-K1, rat B1R. The method in brief:
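Stable CHO K1 lines, Fluo-4 dye, probenecid-containing buffer. Cpd 10 μM or dose range, 10–20 min, then EC80 agonist (h: Lys-Des-Arg9-BK; r: Des-Arg9-BK). Readout peak FC; % inhibition vs max; IC50 from n=2–3, N≥2.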

For `O=C(NC1CCc2ccc(C(=O)N3CCC4(CCN(Cc5c[nH]cn5)CC4)C3)cc21)c1cc(C(F)(F)F)ccc1Cl` (centres unmarked) [IND_CC-631, 2-Chloro-N-[6-[8-(1H-imidazol-4-yl-methyl)-2,8-diazaspiro[4.5]decane-2-carbonyl]-2,3-dihydro-1H-inden-1-yl]-5-(trifluoromethyl)-benzamide], the inhibition at 10 µM was 57%.
For the compound `CCn1cc(CN2CCC3(CC2)CCN(C(=O)c2ccc4c(c2)C(NC(=O)c2ccccc2Cl)CC4)C3)c(C)n1` (centres unmarked) [IND_CC-565, 2-Chloro-N-[6-[8-[(1-ethyl-3-methyl-1H-pyrazol-4-yl)-methyl]-2,8-diazaspiro[4.5]decane-2-carbonyl]-2,3-dihydro-1H-inden-1-yl]-benzamide], the inhibition at 10 µM was 68%.
For `Cc1cc(OC(F)(F)F)ccc1C(=O)NC1CCc2ccc(C(=O)N3CCC4(CC3)CCN(c3ccncc3)CC4)cc21` (centres unmarked) [IND_CC-300, 2-Methyl-N-[6-(9-pyridin-4-yl-3,9-diazaspiro[5.5]undecane-3-carbonyl)-2,3-dihydro-1H-inden-1-yl]-4-(trifluoromethyloxy)-benzamide] the value was 65%.
With `O=C(NC1CCc2ccc(C(=O)N3CCC4(CCN(Cc5ccc(F)c(F)c5)CC4)CC3)cc21)c1c(F)cccc1Cl` (centres unmarked) [IND_CC-789, 2-Chloro-N-[6-[9-[(3,4-difluoro-phenyl)-methyl]-3,9-diazaspiro[5.5]undecane-3-carbonyl]-2,3-dihydro-1H-inden-1-yl]-6-fluoro-benzamide], the inhibition at 10 µM turned out to be 98%.
The figure for `O=C(NC1CCc2ccc(C(=O)N3CCC4(CCN(S(=O)(=O)c5ccc(F)cc5F)CC4)C3)cc21)c1ccccc1Cl` (centres unmarked) [IND_CC-500, 2-Chloro-N-[6-[8-[(2,4-difluoro-phenyl)sulfonyl]-2,8-diazaspiro[4.5]decane-2-carbonyl]-2,3-dihydro-1H-inden-1-yl]-benzamide] is 51%.
For `CN(C(=O)CC(C)(C)C)C1CCc2ccc(C(=O)N3CCC4(CC3)CCN(c3ccncc3)CC4)cc21` (centres unmarked) [IND_CC-372, N,3,3-Trimethyl-N-[6-(9-pyridin-4-yl-3,9-diazaspiro[5.5]undecane-3-carbonyl)-2,3-dihydro-1H-inden-1-yl]-butyramide] the value was 105%; for `CN(C(=O)c1ccccc1Cl)C1CCc2ccc(C(=O)N3CCC4(CCN(C(=O)c5ccc(F)cc5Cl)CC4)C3)cc21` (centres unmarked) [IND_CC-591, 2-Chloro-N-[6-[8-(2-chloro-4-fluoro-benzoyl)-2,8-diazaspiro[4.5]decane-2-carbonyl]-2,3-dihydro-1H-inden-1-yl]-N-methyl-benzamide], 62%; for `CN(C(=O)c1ccccc1Cl)C1CCc2ccc(C(=O)N3CCC4(CCN(Cc5c(F)cccc5Cl)CC4)C3)cc21` (centres unmarked) [IND_CC-558, 2-Chloro-N-[6-[8-[(2-chloro-6-fluoro-phenyl)-methyl]-2,8-diazaspiro[4.5]-decane-2-carbonyl]-2,3-dihydro-1H-inden-1-yl]-N-methyl-benzamide], 62%.
For `O=C(NC1CCc2ccc(C(=O)N3CCC4(CC3)CCN(c3ccncc3)C4)cc21)c1ccc(F)cc1C(F)(F)F` (centres unmarked) [IND_CC-381, 4-Fluoro-N-[6-(2-pyridin-4-yl-2,8-diazaspiro[4.5]decane-8-carbonyl)-2,3-dihydro-1H-inden-1-yl]-2-(trifluoromethyl)-benzamide] the value was 104%; for `CN(C)c1ncc(CN2CCC3(CC2)CCN(C(=O)c2ccc4c(c2)C(NC(=O)c2ccccc2Cl)CC4)C3)cn1` (centres unmarked) [IND_CC-566, 2-Chloro-N-[6-[8-[(2-dimethylamino-pyrimidin-5-yl)-methyl]-2,8-diazaspiro[4.5]decane-2-carbonyl]-2,3-dihydro-1H-inden-1-yl]-benzamide], 90%; for `N#Cc1cccc(NC(=O)N2CCC3(CC2)CCN(C(=O)c2ccc4c(c2)C(NC(=O)c2ccccc2Cl)CC4)C3)c1` (centres unmarked) [IND_CC-503, 2-[3-[(2-Chloro-benzoyl)amino]-2,3-dihydro-1H-indene-5-carbonyl]-N-(3-cyano-phenyl)-2,8-diazaspiro[4.5]decane-8-carboxylic acid amide], 66%.
Take `N#Cc1ccccc1CN1CCC2(CC1)CCN(C(=O)c1ccc3c(c1)C(NC(=O)c1c(F)cccc1Cl)CC3)CC2` (centres unmarked) [IND_CC-801, 2-Chloro-N-[6-[9-[(2-cyano-phenyl)-methyl]-3,9-diazaspiro[5.5]undecane-3-carbonyl]-2,3-dihydro-1H-inden-1-yl]-6-fluoro-benzamide]: the inhibition at 10 µM was 92%.
Turning to `Cc1ccccc1C(=O)NC1CCc2ccc(C(=O)N3CCC4(CC3)CCN(c3ccncc3)C4)cc21` (centres unmarked) [IND_CC-347, 2-Methyl-N-[6-(2-pyridin-4-yl-2,8-diazaspiro[4.5]decane-8-carbonyl)-2,3-dihydro-1H-inden-1-yl]-benzamide], the inhibition at 10 µM turned out to be 106%.
For `O=C(NC1CCc2ccc(C(=O)N3CCC4(CCN(C(=O)c5ccc(F)cc5F)CC4)C3)cc21)c1sccc1Cl` (centres unmarked) [IND_CC-585, 3-Chloro-N-[6-[8-(2,4-difluoro-benzoyl)-2,8-diazaspiro[4.5]decane-2-carbonyl]-2,3-dihydro-1H-inden-1-yl]-thiophene-2-carboxylic acid amide] the value was 52%; for `CC(C)CN1CCC2(CC1)CCN(C(=O)c1ccc3c(c1)C(NC(=O)c1cc(C(F)(F)F)ccc1Cl)CC3)C2` (centres unmarked) [IND_CC-687, 2-Chloro-N-[6-[8-(2-methyl-propyl)-2,8-diazaspiro[4.5]decane-2-carbonyl]-2,3-dihydro-1H-inden-1-yl]-5-(trifluoromethyl)-benzamide], 76%; for `Cc1nc(CN2CCC3(CC2)CCN(C(=O)c2ccc4c(c2)C(NC(=O)c2c(F)cccc2Cl)CC4)C3)c[nH]1` (centres unmarked) [IND_CC-736, 2-Chloro-6-fluoro-N-[6-[8-[(2-methyl-1H-imidazol-4-yl)-methyl]-2,8-diazaspiro[4.5]decane-2-carbonyl]-2,3-dihydro-1H-inden-1-yl]-benzamide], 93%.
Consider `Cn1nnc2cc(CN3CCC4(CC3)CCN(C(=O)c3ccc5c(c3)C(NC(=O)c3cccc(Cl)c3Cl)CC5)C4)ccc21` (centres unmarked) [IND_CC-746, 2,3-Dichloro-N-[6-[8-[(1-methyl-1H-benzotriazol-5-yl)-methyl]-2,8-diazaspiro[4.5]decane-2-carbonyl]-2,3-dihydro-1H-inden-1-yl]-benzamide], for which the inhibition at 10 µM is 78%.
Take `O=C(NC1CCc2ccc(C(=O)N3CCC4(CCN(Cc5ccc[nH]5)CC4)C3)cc21)c1cc(Cl)ccc1F` (centres unmarked) [IND_CC-620, 5-Chloro-2-fluoro-N-[6-[8-(1H-pyrrol-2-yl-methyl)-2,8-diazaspiro[4.5]decane-2-carbonyl]-2,3-dihydro-1H-inden-1-yl]-benzamide]: the inhibition at 10 µM came out at 54%.
For `O=C(NC1CCc2ccc(C(=O)N3CCC4(CCN(Cc5c[nH]cn5)CC4)CC3)cc21)c1ccccc1Cl` (centres unmarked) [IND_CC-508, 2-Chloro-N-[6-[9-(1H-imidazol-4-yl-methyl)-3,9-diazaspiro[5.5]undecane-3-carbonyl]-2,3-dihydro-1H-inden-1-yl]-benzamide] the value was 100%; for `O=C(NC1CCc2ccc(C(=O)N3CCC4(CCN(CCCc5ccc(F)cc5)CC4)C3)cc21)c1cccc(Cl)c1Cl` (centres unmarked) [IND_CC-751, 2,3-Dichloro-N-[6-[8-[3-(4-fluorophenyl)-propyl]-2,8-diazaspiro[4.5]decane-2-carbonyl]-2,3-dihydro-1H-inden-1-yl]-benzamide], 98%; for `O=C(NC1CCc2ccc(C(=O)N3CCC4(CCN(CCCc5cccc(F)c5)CC4)C3)cc21)c1c(F)cccc1Cl` (centres unmarked) [IND_CC-781, 2-Chloro-6-fluoro-N-[6-[8-[3-(3-fluorophenyl)-propyl]-2,8-diazaspiro[4.5]decane-2-carbonyl]-2,3-dihydro-1H-inden-1-yl]-benzamide], 106%.
The figure for `CN(C(=O)C1CCCCC1)C1CCc2ccc(C(=O)N3CCC4(CC3)CCN(c3ccncc3)CC4)cc21` (centres unmarked) [IND_CC-365, N-Methyl-N-[6-(9-pyridin-4-yl-3,9-diazaspiro[5.5]undecane-3-carbonyl)-2,3-dihydro-1H-inden-1-yl]-cyclohexanecarboxylic acid amide] is 105%; for `O=C(NC1CCc2ccc(C(=O)N3CCC4(CCN(Cc5c(F)cccc5F)CC4)C3)cc21)c1ccccc1Cl` (centres unmarked) [IND_CC-504, 2-Chloro-N-[6-[8-[(2,6-difluoro-phenyl)-methyl]-2,8-diazaspiro[4.5]decane-2-carbonyl]-2,3-dihydro-1H-inden-1-yl]-benzamide] it is 51%; for `CN(C1CCc2ccc(C(=O)N3CCC4(CC3)CCN(c3ccncc3)CC4)cc21)S(=O)(=O)c1cc(Cl)ccc1Cl` (centres unmarked) [IND_CC-344, 2,5-Dichloro-N-methyl-N-[6-(9-pyridin-4-yl-3,9-diazaspiro[5.5]undecane-3-carbonyl)-2,3-dihydro-1H-inden-1-yl]-benzenesulfonic acid amide] it is 99%.
For `O=C(NC1CCc2ccc(C(=O)N3CCC4(CCN(C(=O)NC5CCCCC5)CC4)CC3)cc21)c1ccccc1Cl` (centres unmarked) [IND_CC-708, 3-[3-[(2-Chloro-benzoyl)amino]-2,3-dihydro-1H-indene-5-carbonyl]-N-cyclohexyl-3,9-diazaspiro[5.5]undecane-9-carboxylic acid amide] the value was 99%; for `N#Cc1cccc(CN2CCC3(CC2)CCN(C(=O)c2ccc4c(c2)C(NC(=O)c2cc(Cl)ccc2F)CC4)C3)c1` (centres unmarked) [IND_CC-651, 5-Chloro-N-[6-[8-[(3-cyano-phenyl)-methyl]-2,8-diazaspiro[4.5]decane-2-carbonyl]-2,3-dihydro-1H-inden-1-yl]-2-fluoro-benzamide], 76%.
